Measured values from article PMC5218480 (PLoS ONE, 2017).

System: MV-4-11 cells
Assay: Gene expression microarray analysis (Affymetrix PrimeView) and GSEA
Assay type: cell-based, human
Set-up: RFU PODN (11730768_x_at) / Fold change /veh PODN (11730768_x_at) / RFU LINC00158 (11744669_a_at) / Fold change /veh LINC00158 (11744669_a_at) / RFU DUSP10 (11751237_a_at) / Fold change /veh DUSP10 (11751237_a_at) / RFU ID3 (11757404_x_at) / Fold change /veh ID3 (11757404_x_at) / RFU PLEKHG5 (11737974_s_at) / Fold change /veh PLEKHG5 (11737974_s_at) / RFU LRRC4B (11730491_at) / Fold change /veh LRRC4B (11730491_at) / RFU GIMAP4 (11747438_a_at) / Fold change /veh GIMAP4 (11747438_a_at) / RFU KRT8 (11758183_x_at) / Fold change /veh KRT8 (11758183_x_at) / RFU CNN1 (11734310_a_at) / Fold change /veh CNN1 (11734310_a_at) / RFU VPS37D (11726825_at) / Fold change /veh VPS37D (11726825_at) / RFU C10orf10 (11716522_x_at) / Fold change /veh C10orf10 (11716522_x_at) / RFU KIR2DL2 /// KIR2DL4 /// KIR2DL5A /// KIR2DL5B /// KIR2DS1 /// KIR2DS2 /// KIR2DS3 /// KIR2DS4 /// KIR3DL3 /// KIR3DL3 /// KIR3DS1 (11738374_at) / Fold change /veh KIR2DL2 /// KIR2DL4 /// KIR2DL5A /// KIR2DL5B /// KIR2DS1 /// KIR2DS2 /// KIR2DS3 /// KIR2DS4 /// KIR3DL3 /// KIR3DL3 /// KIR3DS1 (11738374_at) / RFU C1QL1 (11718748_at) / Fold change /veh C1QL1 (11718748_at) / RFU TMPRSS4 (11747572_a_at) / Fold change /veh TMPRSS4 (11747572_a_at) / RFU HAMP (11756126_x_at) / Fold change /veh HAMP (11756126_x_at) / RFU RNFT2 (11725882_a_at) / Fold change /veh RNFT2 (11725882_a_at) / RFU NR4A2 (11747474_a_at) / Fold change /veh NR4A2 (11747474_a_at) / RFU ABCC12 (11746883_a_at) / Fold change /veh ABCC12 (11746883_a_at) / RFU TMEM136 (11760407_x_at) / Fold change /veh TMEM136 (11760407_x_at) / RFU CLDN22 /// WWC2 (11732394_at) / Fold change /veh CLDN22 /// WWC2 (11732394_at) / RFU HLA-DPB1 (11760878_x_at) / Fold change /veh HLA-DPB1 (11760878_x_at) / RFU SPINT1 (11716480_a_at) / Fold change /veh SPINT1 (11716480_a_at) / RFU GAP43 (11754022_s_at) / Fold change /veh GAP43 (11754022_s_at) / RFU A4GNT (11735810_at) / Fold change /veh A4GNT (11735810_at) / RFU PRB3 (11715151_x_at) / Fold change /veh PRB3 (11715151_x_at) / RFU TUBB4B (11761932_at) / Fold change /veh TUBB4B (11761932_at) / RFU CAPN14 (11732068_a_at) / Fold change /veh CAPN14 (11732068_a_at) / RFU TMCC2 (11721928_a_at) / Fold change /veh TMCC2 (11721928_a_at) / RFU IRGQ (11745062_a_at) / Fold change /veh IRGQ (11745062_a_at) / RFU FAM174B (11720279_a_at) / Fold change /veh FAM174B (11720279_a_at) / RFU TMPRSS4 (11748680_a_at) / Fold change /veh TMPRSS4 (11748680_a_at) / RFU FAM212B (11763350_a_at) / Fold change /veh FAM212B (11763350_a_at) / RFU PLEKHG5 (11743358_a_at) / Fold change /veh PLEKHG5 (11743358_a_at) / RFU ZSCAN30 (11745921_a_at) / Fold change /veh ZSCAN30 (11745921_a_at) / RFU CMKLR1 (11741424_a_at) / Fold change /veh CMKLR1 (11741424_a_at) / RFU LOC101060620 /// MAPK8IP1 (11723275_at) / Fold change /veh LOC101060620 /// MAPK8IP1 (11723275_at) / RFU SPTSSB (11747773_x_at) / Fold change /veh SPTSSB (11747773_x_at) / RFU PRSS12 (11739890_at) / Fold change /veh PRSS12 (11739890_at) / RFU BIN1 (11741810_x_at) / Fold change /veh BIN1 (11741810_x_at) / RFU WNT11 (11732464_a_at) / Fold change /veh WNT11 (11732464_a_at) / RFU C10orf10 (11716521_a_at) / Fold change /veh C10orf10 (11716521_a_at) / RFU C5orf56 (11738089_at) / Fold change /veh C5orf56 (11738089_at) / RFU CYB561 (11721691_x_at) / Fold change /veh CYB561 (11721691_x_at) / RFU ANKRD19P (11752326_a_at) / Fold change /veh ANKRD19P (11752326_a_at) / RFU OR2T12 /// OR2T33 /// OR2T8 (11738714_s_at) / Fold change /veh OR2T12 /// OR2T33 /// OR2T8 (11738714_s_at) / RFU VCAN (11748164_a_at) / Fold change /veh VCAN (11748164_a_at) / RFU JSRP1 (11732532_at) / Fold change /veh JSRP1 (11732532_at) / RFU KRTAP10-11 (11738290_x_at) / Fold change /veh KRTAP10-11 (11738290_x_at) / RFU MYO3A (11730013_a_at) / Fold change /veh MYO3A (11730013_a_at) / RFU EBF3 (11725865_a_at) / Fold change /veh EBF3 (11725865_a_at) / RFU CAMK2N1 (11719241_x_at) / Fold change /veh CAMK2N1 (11719241_x_at) / RFU C5orf56 (11738088_a_at) / Fold change /veh C5orf56 (11738088_a_at) / RFU OLFML3 (11715873_a_at) / Fold change /veh OLFML3 (11715873_a_at) / RFU LOC100653217 /// NTM (11731650_a_at) / Fold change /veh LOC100653217 /// NTM (11731650_a_at) / RFU MAPK11 (11762145_a_at) / Fold change /veh MAPK11 (11762145_a_at) / RFU FIZ1 (11724087_x_at) / Fold change /veh FIZ1 (11724087_x_at) / RFU OASL (11726364_x_at) / Fold change /veh OASL (11726364_x_at) / RFU SOX15 (11748057_x_at) / Fold change /veh SOX15 (11748057_x_at) / RFU CD79A (11719716_a_at) / Fold change /veh CD79A (11719716_a_at) / RFU HIST1H1D (11736915_at) / Fold change /veh HIST1H1D (11736915_at) / RFU CASKIN2 (11723855_a_at) / Fold change /veh CASKIN2 (11723855_a_at) / RFU LOC730098 (11760151_x_at) / Fold change /veh LOC730098 (11760151_x_at) / RFU OR4N2 (11742367_at) / Fold change /veh OR4N2 (11742367_at) / RFU PRRT2 (11749266_a_at) / Fold change /veh PRRT2 (11749266_a_at) / RFU SNX32 (11753110_a_at) / Fold change /veh SNX32 (11753110_a_at) / RFU CDHR5 (11726645_a_at) / Fold change /veh CDHR5 (11726645_a_at) / RFU RCAN1 (11760418_a_at) / Fold change /veh RCAN1 (11760418_a_at) / RFU FAM167A (11723789_a_at) / Fold change /veh FAM167A (11723789_a_at) / RFU FAM26E (11764081_at) / Fold change /veh FAM26E (11764081_at) / RFU ISYNA1 (11749810_s_at) / Fold change /veh ISYNA1 (11749810_s_at) / RFU ACY1 (11761880_at) / Fold change /veh ACY1 (11761880_at) / RFU 11764098_at / Fold change /veh 11764098_at / RFU SAMD14 (11745864_x_at) / Fold change /veh SAMD14 (11745864_x_at) / RFU NPB (11741838_a_at) / Fold change /veh NPB (11741838_a_at) / RFU TMPRSS6 (11731388_a_at) / Fold change /veh TMPRSS6 (11731388_a_at) / RFU KRTAP10-2 (11738614_at) / Fold change /veh KRTAP10-2 (11738614_at) / RFU ARHGAP8 /// PRR5-ARHGAP8 (11727945_x_at) / Fold change /veh ARHGAP8 /// PRR5-ARHGAP8 (11727945_x_at) / RFU KRTAP5-7 /// NADSYN1 (11734609_at) / Fold change /veh KRTAP5-7 /// NADSYN1 (11734609_at) / RFU RASL12 (11751679_a_at) / Fold change /veh RASL12 (11751679_a_at) / RFU CDKN2B (11736163_a_at) / Fold change /veh CDKN2B (11736163_a_at) / RFU PRF1 (11729649_at) / Fold change /veh PRF1 (11729649_at) / RFU, ZNF638 /// ZNF638-IT1 / Fold change vs veh, ZNF638 /// ZNF638-IT1 / RFU, PANK3 / Fold change vs veh, PANK3 / RFU, SH3YL1 / Fold change vs veh, SH3YL1 / RFU, ZEB2 / Fold change vs veh, ZEB2 / RFU, NRIP1 / Fold change vs veh, NRIP1 / RFU, PTTG1IP / Fold change vs veh, PTTG1IP / RFU, CAPN2 / Fold change vs veh, CAPN2 / RFU, MED14 / Fold change vs veh, MED14 / RFU, SNORA58 / Fold change vs veh, SNORA58 / RFU, C1orf63 / Fold change vs veh, C1orf63 / RFU, LRRFIP1 / Fold change vs veh, LRRFIP1 / RFU, NDUFAF7 / Fold change vs veh, NDUFAF7 / RFU, SLC12A2 / Fold change vs veh, SLC12A2 / RFU, IBTK / Fold change vs veh, IBTK / RFU, ESF1 / Fold change vs veh, ESF1 / Fold change vs veh, TMEM50B / RFU, TAOK1 / Fold change vs veh, TAOK1 / RFU, ACBD3 / Fold change vs veh, ACBD3 / RFU, TMA16 / Fold change vs veh, TMA16 / RFU, RWDD3 / Fold change vs veh, RWDD3 / RFU, BCAT1 / Fold change vs veh, BCAT1 / RFU, EDEM3 / Fold change vs veh, EDEM3 / RFU, TMEM33 / Fold change vs veh, TMEM33 / RFU, WDR75 / Fold change vs veh, WDR75 / RFU, AHCTF1 / Fold change vs veh, AHCTF1 / RFU, TFRC / Fold change vs veh, TFRC / RFU, ZDHHC17 / Fold change vs veh, ZDHHC17 / RFU, NOM1 / Fold change vs veh, NOM1 / RFU, ARL8B / Fold change vs veh, ARL8B / RFU, ZBTB11 / Fold change vs veh, ZBTB11 / RFU, TAMM41 / Fold change vs veh, TAMM41 / RFU, KIAA1704 /// LOC100996395 / Fold change vs veh, KIAA1704 /// LOC100996395 / RFU, ING1 / Fold change vs veh, ING1 / RFU, TRMT61B / Fold change vs veh, TRMT61B / RFU, FUBP3 / Fold change vs veh, FUBP3 / RFU, TP53 / Fold change vs veh, TP53 / RFU, TNKS2 / Fold change vs veh, TNKS2 / RFU, ZFP14 / Fold change vs veh, ZFP14 / RFU, ACTR2 / Fold change vs veh, ACTR2 / RFU, PPP3R1 / Fold change vs veh, PPP3R1 / RFU, PIK3R1 / Fold change vs veh, PIK3R1 / RFU, HNRNPA1 / Fold change vs veh, HNRNPA1 / RFU, RNF170 / Fold change vs veh, RNF170 / RFU, ZNF28 / Fold change vs veh, ZNF28 / RFU, RNGTT / Fold change vs veh, RNGTT / RFU, OGT / Fold change vs veh, OGT / RFU, BRD1 / Fold change vs veh, BRD1 / RFU, MARS / Fold change vs veh, MARS / RFU, ZNF655 / Fold change vs veh, ZNF655 / RFU, FAHD1 / Fold change vs veh, FAHD1 / RFU, BDP1 / Fold change vs veh, BDP1 / RFU, LRRCC1 / Fold change vs veh, LRRCC1 / RFU, ARID1A / Fold change vs veh, ARID1A / RFU, ZNF146 / Fold change vs veh, ZNF146 / RFU, ZNF330 / Fold change vs veh, ZNF330 / RFU, GPN3 / Fold change vs veh, GPN3 / RFU, C9orf123 / Fold change vs veh, C9orf123 / RFU, N4BP2L2 / Fold change vs veh, N4BP2L2 / RFU, ARFIP1 / Fold change vs veh, ARFIP1 / RFU, FAM179B / Fold change vs veh, FAM179B / RFU, BCL10 / Fold change vs veh, BCL10 / RFU, UHRF1BP1L / Fold change vs veh, UHRF1BP1L / RFU, BET1 / Fold change vs veh, BET1 / RFU, CNOT2 / Fold change vs veh, CNOT2 / RFU, ZNF268 / Fold change vs veh, ZNF268 / Fold change vs veh, ZNF507 / RFU, DGCR2 / Fold change vs veh, DGCR2 / RFU, WDSUB1 / Fold change vs veh, WDSUB1 / Fold change vs veh, HSP90B1 /// MIR3652 / RFU, ADSS / Fold change vs veh, ADSS / RFU, GK / Fold change vs veh, GK / RFU, ZNF148 / Fold change vs veh, ZNF148 / RFU, TAF9 / Fold change vs veh, TAF9 / RFU, SLC1A5 / Fold change vs veh, SLC1A5 / RFU, SLMO2 / Fold change vs veh, SLMO2 / RFU, ABCC4 / Fold change vs veh, ABCC4 / RFU, LOC101060439 /// RAP1B / Fold change vs veh, LOC101060439 /// RAP1B / RFU, RFX7 / Fold change vs veh, RFX7 / RFU, GTPBP10 / Fold change vs veh, GTPBP10 / RFU, CNEP1R1 / Fold change vs veh, CNEP1R1 / RFU, BIVM-ERCC5 /// ERCC5 / Fold change vs veh, BIVM-ERCC5 /// ERCC5 / RFU, ILF3 / Fold change vs veh, ILF3 / RFU 11762660_at / Fold change /veh 11762660_at / RFU VCAN (11757783_s_at) / Fold change /veh VCAN (11757783_s_at) / RFU DDX43 (11728927_at) / Fold change /veh DDX43 (11728927_at) / RFU KRT8 (11758188_x_at) / Fold change /veh KRT8 (11758188_x_at) / RFU NKD1 (11759106_at) / Fold change /veh NKD1 (11759106_at) / RFU SRD5A1 (11742802_a_at) / Fold change /veh SRD5A1 (11742802_a_at) / RFU TPSAB1 /// TPSB2 (11721975_s_at) / Fold change /veh TPSAB1 /// TPSB2 (11721975_s_at) / RFU GSTM3 (11746129_a_at) / Fold change /veh GSTM3 (11746129_a_at) / RFU IL23R (11737362_x_at) / Fold change /veh IL23R (11737362_x_at) / RFU TMEM51 (11727254_a_at) / Fold change /veh TMEM51 (11727254_a_at) / RFU PIWIL2 (11732686_x_at) / Fold change /veh PIWIL2 (11732686_x_at) / RFU ORM1 (11744905_x_at) / Fold change /veh ORM1 (11744905_x_at) / RFU CCDC152 (11743942_at) / Fold change /veh CCDC152 (11743942_at) / RFU ECM1 (11717891_a_at) / Fold change /veh ECM1 (11717891_a_at) / RFU IL23R (11748794_a_at) / Fold change /veh IL23R (11748794_a_at) / RFU TNFAIP8L3 (11732012_x_at) / Fold change /veh TNFAIP8L3 (11732012_x_at) / RFU MBOAT4 (11741988_at) / Fold change /veh MBOAT4 (11741988_at) / RFU 11764193_at / Fold change /veh 11764193_at / RFU TMEM53 (11763286_at) / Fold change /veh TMEM53 (11763286_at) / RFU MAGEB2 (11727129_at) / Fold change /veh MAGEB2 (11727129_at) / RFU TMEM200A (11744735_a_at) / Fold change /veh TMEM200A (11744735_a_at) / RFU CCDC152 (11751479_a_at) / Fold change /veh CCDC152 (11751479_a_at) / RFU FAM211A (11726209_a_at) / Fold change /veh FAM211A (11726209_a_at) / RFU RGS16 (11746705_a_at) / Fold change /veh RGS16 (11746705_a_at) / RFU VCAN (11755009_s_at) / Fold change /veh VCAN (11755009_s_at) / RFU RHOB (11743442_s_at) / Fold change /veh RHOB (11743442_s_at) / RFU RGS16 (11720943_a_at) / Fold change /veh RGS16 (11720943_a_at) / RFU RGS16 (11720944_at) / Fold change /veh RGS16 (11720944_at) / RFU, VPS4B / Fold change vs veh, VPS4B / RFU, CREB1 / Fold change vs veh, CREB1 / RFU, DNAJC13 / Fold change vs veh, DNAJC13 / RFU, GNAQ / Fold change vs veh, GNAQ / RFU, CDK5R1 / Fold change vs veh, CDK5R1 / RFU, ZRANB3 / Fold change vs veh, ZRANB3 / RFU, CUL4A / Fold change vs veh, CUL4A / RFU, CCNY / Fold change vs veh, CCNY / RFU, UFL1 / Fold change vs veh, UFL1 / RFU, COG3 / Fold change vs veh, COG3 / RFU, DIAPH2 / Fold change vs veh, DIAPH2 / RFU, SKA2 / Fold change vs veh, SKA2 / RFU, AFF3 / Fold change vs veh, AFF3 / RFU, LMF1 / Fold change vs veh, LMF1 / RFU, IPO11 / Fold change vs veh, IPO11 / RFU, DFFB / Fold change vs veh, DFFB / RFU, FOXP1 / Fold change vs veh, FOXP1 / RFU, CARD8 / Fold change vs veh, CARD8 / RFU, STRN3 / Fold change vs veh, STRN3 / RFU, ADK / Fold change vs veh, ADK / RFU, RASSF2 / Fold change vs veh, RASSF2 / RFU, WIPF1 / Fold change vs veh, WIPF1 / RFU, LARP1B / Fold change vs veh, LARP1B / RFU, RASA1 / Fold change vs veh, RASA1 / RFU, RB1 / Fold change vs veh, RB1 / RFU, PPFIA1 / Fold change vs veh, PPFIA1 / RFU, MAT2A / Fold change vs veh, MAT2A / RFU, CCT5 / Fold change vs veh, CCT5 / RFU, WDR92 / Fold change vs veh, WDR92 / RFU, CUX1 / Fold change vs veh, CUX1 / RFU, TTC7A / Fold change vs veh, TTC7A / RFU, TMEM135 / Fold change vs veh, TMEM135 / RFU, DEPTOR / Fold change vs veh, DEPTOR / RFU, CPM / Fold change vs veh, CPM / RFU, DNAJB6 / Fold change vs veh, DNAJB6 / RFU, CACNA2D3 / Fold change vs veh, CACNA2D3 / RFU, DTX4 / Fold change vs veh, DTX4 / RFU, TFCP2 / Fold change vs veh, TFCP2 / RFU, GMCL1 /// GMCL1P1 / Fold change vs veh, GMCL1 /// GMCL1P1 / RFU, AEBP2 / Fold change vs veh, AEBP2 / RFU, SNHG1 /// SNORD22 /// SNORD25 /// SNORD26 /// SNORD27 /// SNORD28 /// SNORD29 /// SNORD31 / Fold change vs veh, SNHG1 /// SNORD22 /// SNORD25 /// SNORD26 /// SNORD27 /// SNORD28 /// SNORD29 /// SNORD31 / Fold change (Aza/veh), C12orf56 (ProbeSet 11735607_a_at) / Fold change (ACY-1035/veh), C12orf56 (ProbeSet 11735607_a_at) / Fold change (Aza/veh), FGFR1OP (ProbeSet 11751329_s_at) / Fold change (ACY-1035/veh), FGFR1OP (ProbeSet 11751329_s_at) / Fold change (Aza/veh), VPS36 (ProbeSet 11739960_a_at) / Fold change (ACY-1035/veh), VPS36 (ProbeSet 11739960_a_at) / RFU SYPL1 (11715823_x_at) / Fold change /veh SYPL1 (11715823_x_at) / RFU IGFBP7 (11715501_s_at) / Fold change /veh IGFBP7 (11715501_s_at) / RFU REEP3 (11722064_at) / Fold change /veh REEP3 (11722064_at) / RFU IGLL1 (11728026_x_at) / Fold change /veh IGLL1 (11728026_x_at): dose or concentration left out as unconfirmed
Details: MV-4-11 cells, 48 hours

Compound: Nc1ncn([C@@H]2O[C@H](CO)[C@@H](O)[C@H]2O)c(=O)n1 [azacitidine]
- RFU KRTAP10-11 (11738290_x_at): 43.89 RFU
